The record followed here is ChEMBL document CHEMBL1134299, “Conformationally constrained analogues of diacylglycerol. 18. The incorporation of a hydroxamate moiety into diacylglycerol-lactones reduces lipophilicity and helps discriminate between sn-1 and sn-2 binding modes to protein kinase C (PK-C). Implications for isozyme specificity” (J Med Chem, 2001).

By Ki is commonly meant the equilibrium dissociation constant of an inhibitor or competing ligand from its target. A word on the logP: it is a log measure of how a compound divides between an organic and an aqueous phase. Read a low logP as a more hydrophilic compound.

The target in series [1] is Protein kinase C alpha type (Homo sapiens, UniProt P17252). Put plainly: Displacement of [20-3H]-PDBU ligand from recombinant protein kinase C (baculovirus).
Series [2] can be described thus: Partition coefficient (logP). The series is classed as physicochemical. Particulars: octanol/water.

Regarding `CC(C)C(C/C=C1\CC(CO)(COC(=O)C(C)(C)C)OC1=O)C(C)C` (stereo not given), the Ki in series [1] amounted to 11.2 nM.

As for `CC(C)CC(C/C=C1/CC(CO)(COC(=O)C(C)(C)C)OC1=O)CC(C)C` (stereo not given), the logP in series [2] stood at 5.03. Also, in series [1], the Ki is 2.9 nM.

For `CC(C)CC(C/C=C1\CC(CO)(COC(=O)C(C)(C)C)OC1=O)CC(C)C` (stereo not given), the logP in series [2] worked out at 5.03. The Ki in series [1] turned out to be 4.51 nM.

`CC(C)CC(C/C=C1/CC(CO)(CNC(=O)C(C)(C)C)OC1=O)CC(C)C` (stereo not given): the logP in series [2] is 3.95. For the same compound, in series [1], the Ki is 430 nM.

For `CC(C)CC(C/C=C1\CC(CO)(COC(=O)C(C)(C)C)N(O)C1=O)CC(C)C` (stereo not given), the Ki in series [1] was found to be 10400 nM.

Compound `CC(C)C(C/C=C1\CC(CO)(COC(=O)CC(C(C)C)C(C)C)OC1=O)C(C)C` (stereo not given) came in with a logP in series [2] of 5.89.

Regarding `CC(C)C(C/C=C1/CC(CO)(COC(=O)C(C)(C)C)OC1=O)C(C)C` (stereo not given), the Ki in series [1] was determined as 8.32 nM.

In the case of `CC(C)CC(C/C=C1\CC(CO)(CNC(=O)C(C)(C)C)OC1=O)CC(C)C` (stereo not given), in series [2], the logP turned out to be 3.95. Moreover, the Ki in series [1] was 1260 nM.

In the case of `CC(C)CC(C/C=C1\CC(CO)(COC(=O)CC(C(C)C)C(C)C)OC1=O)CC(C)C` (stereo not given), the logP in series [2] was 6.88. Moreover, the Ki in series [1] turned out to be 4.46 nM.

`CC(C)CC(C/C=C1/CC(CO)(CN(O)C(=O)C(C)(C)C)OC1=O)CC(C)C` (stereo not given): the logP in series [2] is 3.58. For the same compound, the Ki in series [1] is 5.42 nM.

For `CC(C)CC(C/C=C1\CC(CO)(COC(=O)C(C)(C)C)NC1=O)CC(C)C` (stereo not given), in series [2], the logP was 5.01. Also, the Ki in series [1] was 4840 nM.

`CC(C)CC(C/C=C1/CC(CO)(COC(=O)C(C)(C)C)NC1=O)CC(C)C` (stereo not given) displayed a logP in series [2] of 5.01. Besides, in series [1], the Ki was 4330 nM.

Compound `CC(C)CC(C/C=C1\CC(CO)(CN(O)C(=O)C(C)(C)C)OC1=O)CC(C)C` (stereo not given) registered a logP in series [2] of 3.58. Also, the Ki in series [1] was found to be 4.81 nM.

In series [2], `CC(C)CC(C/C=C1/CC(CO)(COC(=O)CC(C(C)C)C(C)C)OC1=O)CC(C)C` (stereo not given) yielded a logP of 6.88. For the same compound, in series [1], the Ki stood at 6.87 nM.

`CC(C)C(C/C=C1/CC(CO)(COC(=O)CC(C(C)C)C(C)C)OC1=O)C(C)C` (stereo not given) returned a logP in series [2] of 5.89.
